{
  "source": "patent US9981942B2",
  "about": "“Piperidine derivatives having multimodal activity against pain” (LABORATORIOS DEL DR. ESTEVE S.A., priority 2013, dated 2018)",
  "data": [
    {"tested_on": "σ1 receptor and the μ-opiod receptor", "assay": "μ and σ1 dual binding: combined class from the Ki of both radioligand assays", "design": "species or system human; key to μ and σ1 dual binding: +: Both Ki-μ and Ki-σ1>=500 nM; ++: One Ki<500 nM while the other Ki is >=500 nM; +++: Both Ki-μ and Ki-σ1<500 nM; ++++: Both Ki-μ and Ki-σ1<100 nM", "conditions": "combined class for Ki-μ and Ki-σ1; transfected HEK-293 membranes (σ1), transfected CHO-K1 cell membranes (μ)", "procedure,_shortened": "(§1)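 Classes combine both Ki values, split at 500 nM and 100 nM. Human μ-opioid binding used 1 nM [3H]-DAMGO on CHO-K1 membranes (27 °C, 60 min, pH 7.4, naloxone 10 μM for NSB); human σ1 used 5 nM [3H](+)-pentazocine on HEK-293 membranes (37 °C, 120 min, pH 8, haloperidol 10 μM for NSB).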", "values": [
      {"smiles": "CC(C)S(=O)(=O)Nc1cccc(C2CCN(Cc3cn(Cc4cccc(C(F)(F)F)n4)nn3)CC2)c1", "note": "[Example 117, N-(3-(1-((1-((6-(trifluoromethyl)pyridin-2-yl)methyl)-1H-1,2,3-triazol-4-yl)methyl)piperidin-4-yl)phenyl)propane-2-sulfonamide]", "μ and σ1 dual binding": "++"},
      {"smiles": "CC(C)S(=O)(=O)Nc1cccc(C2CCN(Cc3cn(Cc4ccc(C(F)(F)F)nc4)nn3)CC2)c1", "note": "[Example 124, N-(3-(1-((1-((6-(trifluoromethyl)pyridin-3-yl)methyl)-1H-1,2,3-triazol-4-yl)methyl)piperidin-4-yl)phenyl)propane-2-sulfonamide]", "μ and σ1 dual binding": "++"},
      {"smiles": "CC(C)S(=O)(=O)Nc1cccc(C2CCN(Cc3cn(Cc4ccc(F)cn4)nn3)CC2)n1", "note": "[Example 210, N-(6-(1-((1-((5-fluoropyridin-2-yl)methyl)-1H-1,2,3-triazol-4-yl)methyl)piperidin-4-yl)pyridin-2-yl)propane-2-sulfonamide]", "μ and σ1 dual binding": "++"},
      {"smiles": "CS(=O)(=O)Nc1cccc(C2CCN(Cc3cn(Cc4cccnc4)nn3)CC2)c1", "note": "[Example 99, N-(3-(1-((1-(pyridin-3-ylmethyl)-1H-1,2,3-triazol-4-yl)methyl)piperidin-4-yl)phenyl)methanesulfonamide]", "μ and σ1 dual binding": "++"},
      {"smiles": "CC(C)S(=O)(=O)Nc1cccc([C@@H]2CCN(Cc3cn(Cc4ccccn4)nn3)C[C@@H]2O)c1", "note": "[Example 125, N-(3-((3R,4S)-3-hydroxy-1-((1-(pyridin-2-ylmethyl)-1H-1,2,3-triazol-4-yl)methyl)piperidin-4-yl)phenyl)propane-2-sulfonamide]", "μ and σ1 dual binding": "++"},
      {"smiles": "CS(=O)(=O)Nc1cccc(C2CCN(Cc3cn([C@@H]4Cc5ccccc5[C@@H]4O)nn3)CC2)c1", "note": "[Example 97, N-(3-(1-((1-((1S,2R)-1-hydroxy-2,3-dihydro-1H-inden-2-yl)-1H-1,2,3-triazol-4-yl)methyl)piperidin-4-yl)phenyl)methanesulfonamide]", "μ and σ1 dual binding": "++"},
      {"smiles": "CS(=O)(=O)Nc1cccc(C2CCN(Cc3cn([C@@H]4c5ccccc5C[C@H]4O)nn3)CC2)c1", "note": "(racemic) [Example 70, (±)-(trans)-N-(3-(1-((1-(2-hydroxy-2,3-dihydro-1H-inden-1-yl)-1H-1,2,3-triazol-4-yl)methyl)piperidin-4-yl)phenyl)methanesulfonamide]", "μ and σ1 dual binding": "++"},
      {"smiles": "O=c1[nH]c2cccc(C3CCN(Cc4cn(-c5ccccc5)nn4)CC3)c2[nH]1", "note": "[Example 13, 4-(1-((1-phenyl-1H-1,2,3-triazol-4-yl)methyl)piperidin-4-yl)-1H-benzo[d]imidazol-2(3H)-one]", "μ and σ1 dual binding": "++"},
      {"smiles": "CC(=O)Nc1nc2ccc(C3CCN(Cc4cn(-c5ccccc5)nn4)CC3)cc2s1", "note": "[Example 74, N-(6-(1-((1-phenyl-1H-1-1,2,3-triazol-4-yl)methyl)piperidin-4-yl)benzo[d]thiazol-2-yl)acetamide]", "μ and σ1 dual binding": "++"},
      {"smiles": "CC(C)S(=O)(=O)Nc1cccc(C2CCN(Cc3cn([C@@H]4c5ccccc5C[C@H]4O)nn3)CC2)c1", "note": "[Example 104, N-(3-(1-((1-((1R,2R)-2-hydroxy-2,3-dihydro-1H-inden-1-yl)-1H-1,2,3-triazol-4-yl)methyl)piperidin-4-yl)phenyl)propane-2-sulfonamide]", "μ and σ1 dual binding": "++"}
    ]},
    {"target": "σ1 receptor and the μ-opiod receptor", "assay": "μ and σ1 dual binding: combined class from the Ki of both radioligand assays", "design": "species or system human; key to μ and σ1 dual binding: +: Both Ki-μ and Ki-σ1>=500 nM; ++: One Ki<500 nM while the other Ki is >=500 nM; +++: Both Ki-μ and Ki-σ1<500 nM; ++++: Both Ki-μ and Ki-σ1<100 nM", "conditions": "transfected HEK-293 membranes (σ1), transfected CHO-K1 cell membranes (μ)", "procedure,_shortened": "as §1", "units": {"Ki range for both μ and σ1 (dual-binding class)": "nM"}, "values": [
      {"smiles": "CS(=O)(=O)Nc1cccc(C2CCN(Cc3cn(-c4ccc(F)cc4)nn3)CC2)c1", "note": "[Example 16, N-(3-(1-((1-(4-fluorophenyl)-1H-1,2,3-triazol-4-yl)methyl)piperidin-4-yl)phenyl)methanesulfonamide]", "Ki range for both μ and σ1 (dual-binding class)": "< 500"},
      {"smiles": "CO[C@@H]1Cc2ccccc2[C@H]1n1cc(CN2CCC(c3cccc(O)c3)CC2)nn1", "note": "[Example 61, 3-(1-((1-((1R,2R)-2-methoxy-2,3-dihydro-1H-inden-1-yl)-1H-1,2,3-triazol-4-yl)methyl)piperidin-4-yl)phenol]", "Ki range for both μ and σ1 (dual-binding class)": "< 100"},
      {"smiles": "CC(C)S(=O)(=O)Nc1cccc([C@@H]2CCN(Cc3cn(-c4ccccc4)nn3)C[C@@H]2O)c1", "note": "(racemic) [Example 115, N-(3-((3R,4S)-3-hydroxy-1-((1-phenyl-1H-1,2,3-triazol-4-yl)methyl)piperidin-4-yl)phenyl)propane-2-sulfonamide]", "Ki range for both μ and σ1 (dual-binding class)": "< 500"},
      {"smiles": "Oc1cccc(C2CCN(Cc3cn([C@@H]4CCCC[C@H]4O)nn3)CC2)c1", "note": "[Example 66, 3-(1-((1-((1R,2R)-2-hydroxycyclohexyl)-1H-1,2,3-triazol-4-yl)methyl)piperidin-4-yl)phenol]", "Ki range for both μ and σ1 (dual-binding class)": "< 500"},
      {"smiles": "Oc1cccc(C2CCN(Cc3cn([C@@H]4Cc5ccccc5[C@@H]4F)nn3)CC2)c1", "note": "[Example 71, 3-(1-((1-((1S,2R)-1-fluoro-2,3-dihydro-1H-inden-2-yl)-1H-1,2,3-triazol-4-yl)methyl)piperidin-4-yl)phenol]", "Ki range for both μ and σ1 (dual-binding class)": "< 100"},
      {"smiles": "CS(=O)(=O)Nc1cccc(C2CCN(Cc3cnn(-c4ccccc4)c3)CC2)n1", "note": "[Example 203, N-(6-(1-((1-phenyl-1H-pyrazol-4-yl)methyl)piperidin-4-yl)pyridin-2-yl)methanesulfonamide]", "Ki range for both μ and σ1 (dual-binding class)": "< 500"},
      {"smiles": "CS(=O)(=O)Nc1cccc(C2CCN(Cc3cn(Cc4ccc(C(F)(F)F)cc4)nn3)CC2)c1", "note": "[Example 57, N-(3-(1-((1-(4-(trifluoromethyl)benzyl)-1H-1,2,3-triazol-4-yl)methyl)piperidin-4-yl)phenyl)methanesulfonamide]", "Ki range for both μ and σ1 (dual-binding class)": "< 500"},
      {"smiles": "CS(=O)(=O)Nc1cc(C2CCN(Cc3cc(-c4ccccc4)no3)CC2)ccc1F", "note": "[Example 180, N-(2-fluoro-5-(1-((3-phenylisoxazol-5-yl)methyl)piperidin-4-yl)phenyl)methanesulfonamide]", "Ki range for both μ and σ1 (dual-binding class)": "< 500"},
      {"smiles": "CC(C)S(=O)(=O)Nc1cccc(C2CCN(Cc3cn(-c4ccccc4)nn3)CC2)n1", "note": "[Example 207, N-(6-(1-((1-phenyl-1H-1,2,3-triazol-4-yl)methyl)piperidin-4-yl)pyridin-2-yl)propane-2-sulfonamide]", "Ki range for both μ and σ1 (dual-binding class)": "< 500"},
      {"smiles": "CC(C)S(=O)(=O)Nc1cccc(C2CCN(Cc3cn(-c4ccccc4F)nn3)CC2)n1", "note": "[Example 208, N-(6-(1-((1-(2-fluorophenyl)-1H-1,2,3-triazol-4-yl)methyl)piperidin-4-yl)pyridin-2-yl)propane-2-sulfonamide]", "Ki range for both μ and σ1 (dual-binding class)": "< 500"},
      {"smiles": "Oc1cccc(C2CCN(Cc3cn(Cc4ccccc4)cn3)CC2)c1", "note": "[Example 184, 3-(1-((1-benzyl-1H-imidazol-4-yl)methyl)piperidin-4-yl)phenol]", "Ki range for both μ and σ1 (dual-binding class)": "< 100"},
      {"smiles": "CS(=O)(=O)Nc1cc(C2CCN(Cc3cn(-c4ccccc4)nn3)CC2)ccc1F", "note": "[Example 34, N-(2-fluoro-5-(1-((1-phenyl-1H-1,2,3-triazol-4-yl)methyl)piperidin-4-yl)phenyl)methanesulfonamide]", "Ki range for both μ and σ1 (dual-binding class)": "< 500"},
      {"smiles": "Cc1ccc(F)c(-n2cc(CN3CCC(c4cccc(O)c4)CC3)nn2)c1", "note": "[Example 224, 3-(1-((1-(2-fluoro-5-methylphenyl)-1H-1,2,3-triazol-4-yl)methyl)piperidin-4-yl)phenol]", "Ki range for both μ and σ1 (dual-binding class)": "< 100"},
      {"smiles": "CC(C)S(=O)(=O)Nc1cccc(C2CCN(Cc3cn(Cc4ccccc4)nn3)CC2)c1", "note": "[Example 79, N-(3-(1-((1-benzyl-1H-1,2,3-triazol-4-yl)methyl)piperidin-4-yl)phenyl)propane-2-sulfonamide]", "Ki range for both μ and σ1 (dual-binding class)": "< 500"}
    ]}
  ]
}
